Earlier results in patent publication US20050244357A1, “Oil-containing emulsifiable formulations containing active agents” (priority 2004, published 2005).

Tested on: thrips
Conditions: cotton, applied alone

CNC(=O)CSP(=S)(OC)OC [Dimethoate]
control of thrips: good control
